Laboratory results: patent US8557848B2, “4,5-ring annulated indole derivatives for treating or preventing of HCV and related viral infections” (Merck Sharp & Dohme Corp., priority 2006, dated 2013)
Where two headings read alike, the source gives them in different places.

Assays:
[1] = test system: HCV replicon cells (replicon RNA level); assay: Cell-Based HCV Replicon Assay; conditions: Hepatitis C virus, 72 h; replicon RNA level by real time PCR (Taqman), cells harvested on day 3; read-out: EC50
Summary of the method: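 Replicon cells at 5000/well received 10 serial 2-fold compound dilutions in 0.5% DMSO, 5% FBS, harvested day 3. Replicon RNA quantified by multiplex Taqman RT-PCR on NS5B versus GAPDH; EC50 and EC90 taken at ΔCT = 1 and 3.2 above baseline from sigmoid fits.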

[2] = target: T1, HCV NS5B polymerase (NS5BΔCT21, from HCV-Con 1 isolate, genotype 1b) (Hepatitis C virus genotype 1b, UniProt Q9WMX2); assay: HCV NS5B Polymerase Inhibition Assay; type: biochemical
T1 construct: A soluble C-terminal 21-amino acid truncated NS5B enzyme form; polyhistidine (C); made in house; host or cells: Escherichia coli
Summary of the method: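 His-tagged NS5BΔCT21 (30 or 150 nM) with 0.03 μM DCoH75 RNA template, 0.25 mM GAU, 0.1 μM ATP/GTP/UTP, 0.026 μM CTP plus [^33P]-CTP, pH 7.3, 2% DMSO; 2 h at 22° C. Incorporated radioactivity counted after filter capture. IC50 from 10-point 2-fold dilutions (top 200 μM to 1 μM) fitted to Hill equation.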

[3] = NS5B polymerase inhibition, [33P]-CTP incorporation, 22° C. for 2 hours, read-out: IC50

| SMILES | EC50 [1] | IC50 [2, 3] | IC50 [2] |
| --- | --- | --- | --- |
| COc1ccc2cc(Cn3c(C(=O)O)c(-c4ccc[nH]c4=O)c4c5occc5c(F)cc43)c(Cl)nc2c1 [Compound 153] | < 500 nM | < 25 nM |  |
| COc1ccc2nc(Cl)c(Cn3c(C(=O)O)c(-c4ccc[nH]c4=O)c4c5occc5c(F)cc43)cc2c1 [Compound 154] | < 500 nM | < 25 nM |  |
| Cc1cccc(Cn2c(C(=O)NS(=O)(=O)C3CC3)c(-c3ccc[nH]c3=O)c3c4occc4ccc32)c1F [Compound 155] | < 500 nM | < 25 nM |  |
| CC(C)n1ncc2cc(Cn3c(C(=O)O)c(-c4ccc[nH]c4=O)c4c5occc5c(F)cc43)c(Cl)nc21 [Compound 156] | 500 to 1500 nM | < 25 nM |  |
| Cc1cccc(Cn2c(C(=O)NS(=O)(=O)C(C)C)c(-c3ccc[nH]c3=O)c3c4occc4ccc32)c1F [Compound 158] | 500 to 1500 nM | < 25 nM |  |
| O=C(O)c1c(-c2ccc[nH]c2=O)c2c3occ(Cl)c3c(F)cc2n1Cc1cc2ccccc2nc1Cl [Compound 159] | < 500 nM | < 25 nM |  |
| CS(=O)(=O)NC(=O)c1c(-c2ccc[nH]c2=O)c2c3occc3ccc2n1Cc1cc(C(N)=O)ccc1F [Compound 161] | < 500 nM | < 25 nM |  |
| O=C(NS(=O)(=O)C1CC1)c1c(-c2ccc[nH]c2=O)c2c3occc3c(F)cc2n1Cc1ccccc1F [Compound 162] | < 500 nM | < 25 nM |  |
| CC(C)S(=O)(=O)NC(=O)c1c(-c2ccc[nH]c2=O)c2c3occc3c(F)cc2n1Cc1ccccc1F [Compound 163] | < 500 nM | < 25 nM |  |
| O=C(NS(=O)(=O)C1CC1)c1c(-c2ccc[nH]c2=O)c2c3c(ccc2n1Cc1cc(F)ccc1F)CCO3 [Compound 164] | < 500 nM | < 25 nM |  |
| CS(=O)(=O)NC(=O)c1c(-c2ccc[nH]c2=O)c2c3occc3c(F)cc2n1Cc1csc(C(N)=O)c1 [Compound 165] | < 500 nM | < 25 nM |  |
| CS(=O)(=O)NC(=O)c1c(-c2ccc[nH]c2=O)c2c3c(c(F)cc2n1Cc1csc(C(N)=O)c1)CCO3 [Compound 167] | < 500 nM | < 25 nM |  |
| CSc1ccc2cc(Cn3c(C(=O)O)c(-c4ccc[nH]c4=O)c4c5occc5c(F)cc43)c(Cl)nc2c1 [Compound 168] | < 500 nM | < 25 nM |  |
| CS(=O)(=O)NC(=O)c1c(-c2ccc[nH]c2=O)c2c3occc3c(F)cc2n1Cc1ccc2[nH]c(N)nc2c1 [Compound 169] | < 500 nM | < 25 nM |  |
| CS(=O)(=O)NC(=O)c1c(-c2ccc[nH]c2=O)c2c3occc3c(F)cc2n1Cc1ccc2onc(N)c2c1 [Compound 170] | < 500 nM | < 25 nM |  |
| Cc1cccc(Cn2c(C(=O)NS(=O)(=O)C3CC3)c(-c3ccc[nH]c3=O)c3c4occc4c(F)cc32)c1F [Compound 171] | < 500 nM | < 25 nM |  |
| C[C@@H]1COc2c1ccc1c2c(-c2ccc[nH]c2=O)c(C(=O)NS(=O)(=O)C2CC2)n1Cc1cc(F)ccc1F [Compound 173] | < 500 nM | < 25 nM |  |
| O=C(NS(=O)(=O)C1CC1)c1c(-c2ccc[nH]c2=O)c2c3occc3c(F)cc2n1Cc1cc(=O)[nH]cc1F [Compound 174] | < 500 nM | < 25 nM |  |
| CS(=O)(=O)NC(=O)c1c(-c2ccc[nH]c2=O)c2c3occc3c(F)cc2n1Cc1cc(C(N)=O)ccc1F [Compound 175] | < 500 nM | < 25 nM |  |
| O=C(NS(=O)(=O)C1CC1)c1c(-c2ccc[nH]c2=O)c2c3occc3c(F)cc2n1Cc1cc(F)ccc1F [Compound 177] | < 500 nM | < 25 nM |  |
| O=C(NS(=O)(=O)C1CC1)c1c(-c2ccc[nH]c2=O)c2c3occc3cc(F)c2n1Cc1cc(F)ccc1F [Compound 178] | < 500 nM | < 25 nM |  |
| CS(=O)(=O)NC(=O)c1c(-c2ccc[nH]c2=O)c2c3occc3c(F)cc2n1Cc1cc([N+](=O)[O-])ccc1F [Compound 179] | < 500 nM | < 25 nM |  |
| CS(=O)(=O)NC(=O)c1c(-c2ccc[nH]c2=O)c2c3occc3ccc2n1Cc1cc2ccccc2nc1Cl [Compound 180] | < 500 nM | < 25 nM |  |
| CS(=O)(=O)NC(=O)c1c(-c2ccc[nH]c2=O)c2c3occc3c(F)cc2n1Cc1cc2nc[nH]c2cc1Cl [Compound 182] | < 500 nM | < 25 nM |  |
| NC(=O)c1cc(Cn2c(C(=O)NS(=O)(=O)C3CC3)c(-c3ccc[nH]c3=O)c3c4occc4c(F)cc32)cs1 [Compound 183] | < 500 nM | < 25 nM |  |
| O=c1[nH]cccc1-c1c(C2=NS(=O)(=O)c3ccccc3N2)n(Cc2ccccc2F)c2cc(F)c3ccoc3c12 [Compound 184] | < 500 nM | < 25 nM |  |

| SMILES | EC50 [1] | IC50 [2, 3] | IC50 [2] |
| --- | --- | --- | --- |
| NC(=O)c1cc(Cn2c(C(=O)NS(=O)(=O)C3CC3)c(-c3ccc[nH]c3=O)c3c4c(c(F)cc32)CCO4)cs1 [Compound 185] | < 500 nM | < 25 nM |  |
| CC(C)S(=O)(=O)NC(=O)c1c(-c2ccc[nH]c2=O)c2c3occc3c(F)cc2n1Cc1csc(C(N)=O)c1 [Compound 186] | < 500 nM | < 25 nM |  |
| CC(C)S(=O)(=O)NC(=O)c1c(-c2ccc[nH]c2=O)c2c3c(c(F)cc2n1Cc1csc(C(N)=O)c1)CCO3 [Compound 188] | < 500 nM | < 25 nM |  |
| O=C(NS(=O)(=O)C1CC1)c1c(-c2ccc[nH]c2=O)c2c3occc3c(F)cc2n1Cc1ccc2[nH]c(=O)[nH]c2c1 [Compound 190] | < 500 nM | < 25 nM |  |
| COC(=O)c1ccc(F)c(Cn2c(C(=O)NS(=O)(=O)C3CC3)c(-c3ccc[nH]c3=O)c3c4occc4ccc32)c1 [Compound 192] | < 500 nM | < 25 nM |  |
| CS(=O)(=O)NC(=O)c1c(-c2ccc[nH]c2=O)c2c3occc3c(F)cc2n1Cc1cc(Cl)nc2ccccc12 [Compound 193] | 500 to 1500 nM | < 25 nM |  |
| CS(=O)(=O)NC(=O)c1c(-c2ccc[nH]c2=O)c2c3occc3c(F)cc2n1Cc1cc2ccccc2nc1Cl [Compound 194] | < 500 nM | < 25 nM |  |
| NC(=O)c1ccc(F)c(Cn2c(C(=O)NS(=O)(=O)C3CC3)c(-c3ccc[nH]c3=O)c3c4occc4c(F)cc32)c1 [Compound 195] | < 500 nM | < 25 nM |  |
| CS(=O)(=O)NC(=O)c1c(-c2ccc[nH]c2=O)c2c3c(c(F)cc2n1Cc1cc2ccccc2nc1Cl)CCO3 [Compound 196] | < 500 nM | < 25 nM |  |
| NC(=O)c1cnc(F)c(Cn2c(C(=O)NS(=O)(=O)C3CC3)c(-c3ccc[nH]c3=O)c3c4occc4c(F)cc32)c1 [Compound 197] | < 500 nM | < 25 nM |  |
| O=C(NS(=O)(=O)C1CC1)c1c(-c2ccc[nH]c2=O)c2c3occc3c(F)cc2n1Cc1cc([N+](=O)[O-])ccc1F [Compound 198] | < 500 nM | < 25 nM |  |
| CC(C)S(=O)(=O)NC(=O)c1c(-c2ccc[nH]c2=O)c2c3occc3c(F)cc2n1Cc1cc(C(N)=O)ccc1F [Compound 199] | < 500 nM | < 25 nM |  |
| NC(=O)c1cnc(F)c(Cn2c(C(=O)NS(=O)(=O)C3CC3)c(-c3ccc[nH]c3=O)c3c4c(c(F)cc32)CCO4)c1 [Compound 200] | < 500 nM | < 25 nM |  |
| O=C(NS(=O)(=O)C1CC1)c1c(-c2ccc[nH]c2=O)c2c3occc3ccc2n1Cc1cc2ccccc2nc1Cl [Compound 201] | < 500 nM | < 25 nM |  |
| Nc1ccccc1S(=O)(=O)NC(=O)c1c(-c2ccc[nH]c2=O)c2c3occc3c(F)cc2n1Cc1ccccc1F [Compound 202] | < 500 nM | < 25 nM |  |
| CN(C)S(=O)(=O)NC(=O)c1c(-c2ccc[nH]c2=O)c2c3occc3ccc2n1Cc1cc2ccccc2nc1Cl [Compound 204] | < 500 nM | < 25 nM |  |
| O=C(NS(=O)(=O)C1CC1)c1c(-c2ccc[nH]c2=O)c2c3occc3c(F)cc2n1Cc1cc2nc[nH]c2cc1Cl [Compound 205] | < 500 nM | < 25 nM |  |
| CS(=O)(=O)NC(=O)c1c(-c2ccc[nH]c2=O)c2c3occc3c(F)cc2n1Cc1cc(C(=O)NC2CC2)ccc1F [Compound 206] | 500 to 1500 nM | < 25 nM |  |
| O=C(NS(=O)(=O)C1CC1)c1c(-c2ccc[nH]c2=O)c2c3occc3c(F)cc2n1Cc1cc(C(O)CO)ccc1F (stereo not drawn) [Compound 207] | < 500 nM | < 25 nM |  |
| CS(=O)(=O)NC(=O)c1c(-c2ccc[nH]c2=O)c2c3occc3c(F)cc2n1Cc1ccc2[nH]c(C(F)(F)F)nc2c1 [Compound 208] | < 500 nM | < 25 nM |  |
| O=C(NS(=O)(=O)C1CC1)c1c(-c2ccc[nH]c2=O)c2c3ncsc3ccc2n1Cc1cc2ccccc2nc1Cl [Compound 209] | < 500 nM | < 25 nM |  |
| O=C(NS(=O)(=O)C1CC1)c1c(-c2ccc[nH]c2=O)c2c3occc3c(F)cc2n1Cc1cc(Cl)nc2ccccc12 [Compound 210] | 500 to 1500 nM | < 25 nM |  |
| O=C(NS(=O)(=O)C1CC1)c1c(-c2ccc[nH]c2=O)c2c3occc3c(F)cc2n1Cc1cc2ccccc2nc1Cl [Compound 211] | < 500 nM | < 25 nM |  |
| O=C(NS(=O)(=O)C1CC1)c1c(-c2ccc[nH]c2=O)c2c3occc3c(F)cc2n1Cc1cc2c(=O)[nH]cnc2cc1F [Compound 212] | < 500 nM |  | < 25 nM |
| CCCS(=O)(=O)NC(=O)c1c(-c2ccc[nH]c2=O)c2c3occc3c(F)cc2n1Cc1cc2ccccc2nc1Cl [Compound 213] | < 500 nM | < 25 nM |  |
